Experimental findings from patent US4559360A, “Cysteine derivatives, a process for their preparation, and pharmaceutical compositions which contain them” (Magis Farmaceutici S.R.L., priority 1984, dated 1985) are described below.

By LD50 is commonly meant the dose at which mortality reaches 50%. Low values mean greater toxicity, high ones lower toxicity.

Holding throughout (format): in vivo
A short description of series [1]: Acute toxicity in the rat (LD50, Litchfield and Wilcoxon). The settings on record: in vivo, 7 days observation. As for the experimental part: (§1) The acute toxicity of the proucts was studied on male and female adult mice of Swiss stock, and on male and female adult rats of Sprague-Dawley stock, by oral and subcutaneous administration. For each method of administration, the tested doses were administered in geometrical progression to 10 animals (5 males and 5 females). After treatment, the animals were kept under observation for 7 days. On termination of this period, the LD50 and the relative confidence limits were calculated by the Litchfield and Wilcoxon method (Pharmacol. Exp. Ther. 96-99, 1949).

Series [2] is described as follows: Acute toxicity in the mouse (LD50, Litchfield and Wilcoxon). To be noted: in vivo, 7 days observation. As for the experimental part:
as §1

The subject of series [3] is rats of Sprague-Dawley stock. As to the kind of experiment: Acute toxicity in the rat (LD50, Litchfield and Wilcoxon). The settings on record: 7 days observation. How it is done:
as §1

The next series concerns mice of Swiss stock. In words: Acute toxicity in the mouse (LD50, Litchfield and Wilcoxon). To be noted: 7 days observation. As for the experimental part:
as §1

Turning to `CC(=O)Oc1ccccc1C(=O)N[C@@H](CSCC(=O)O)C(=O)O` [MSF 01, S-(carboxymethyl)-N-(2-acetoxybenzoyl)-L-cysteine], the 50% lethal dose (LD50) at 168 h in series [1] (oral) turned out to be 4800 mg/kg; in series [1] (sc, subcutaneous) it was 4500 mg/kg; in series [2] (oral) it was 4800 mg/kg; in series [2] (sc, subcutaneous), 4500 mg/kg.
`CC(=O)Oc1ccccc1C(=O)OC(=O)CSC[C@H](N)C(=O)OC(=O)c1ccccc1OC(C)=O` [MSF 03, S-carboxymethylcysteine bis-acetylsalicylanhydride]: the LD50 at 168 h in series [1] (oral) stood at 4500 mg/kg; in series [1] (sc, subcutaneous) it was 4200 mg/kg; in series [2] (oral) it was 4300 mg/kg; in series [2] (sc, subcutaneous), 4100 mg/kg.
As for “S-(carboxymethyl)-L-cysteine acetylsalicylanhydride [MSF 02]”, the LD50 is recorded as 4800 mg/kg in series [3] (oral), 4500 mg/kg in series [3] (subcutaneous), 4600 mg/kg in the series on mice of Swiss stock (oral) and 4400 mg/kg with mice of Swiss stock (subcutaneous).
